Measurements published in patent US20260199497A1, “GLUCOCORTICOID RECEPTOR AGONIST AND CONJUGATE THEREOF” (priority 2023, published 2026).

Tests used:
glucocorticoid receptor [1] = target: T1, glucocorticoid receptor (Homo sapiens, UniProt P04150); assay: GRE reporter gene test (Experiment Example 1), HEK293T cells transfected with pGL4.35 and p-Bind GR Vector; format: cell-based; settings: for EC50: GRE reporter gene, HEK293T cells, 18-20 h incubation; for Emax: HEK-293T; for maximum agonistic effect (Emax): compared with dexamethasone, transfected HEK293T cells
T1 sequence (P04150 524-777 limits assumed): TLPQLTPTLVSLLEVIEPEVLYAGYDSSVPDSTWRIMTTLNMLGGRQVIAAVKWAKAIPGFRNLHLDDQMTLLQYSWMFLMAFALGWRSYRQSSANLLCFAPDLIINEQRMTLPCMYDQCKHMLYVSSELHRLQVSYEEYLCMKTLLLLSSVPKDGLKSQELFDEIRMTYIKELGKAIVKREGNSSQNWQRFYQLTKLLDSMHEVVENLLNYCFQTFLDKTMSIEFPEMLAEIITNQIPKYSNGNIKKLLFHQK
Protocol: The compound of the present invention to be tested was formulated into a 10 mM solution with DMSO, and then subjected to 4-fold dilution at 10 concentration points using DMSO to obtain a 1000× mother liquor, with a final test concentration of 0.000038-10 μM.
(§1) HEK293T cells (ATCC) were plated in a 100 mm culture dish at a density of 6*10^6 cells/culture dish, and cultured for 16 h under the conditions of 37° C. and 5% CO2. Plasmids (pGL4.35 [luc2P/9XGAL4 UAS/Hygro], p-Bind GR Vector, Promega) and Lipofectamine® 3000 (Invitrogen) were mixed, added into the culture dish, and then incubated for 5-6 h under the conditions of 37° C. and 5% CO2.
In a 384-well plate (PerkinElmer), 25 nL of the compound mother liquor was added, and then HEK293T cells transfected with plasmids were added at a density of 18000 cells/well. The cells were incubated for 18-20 h under the conditions of 37° C. and 5% CO2.
After the incubation was ended, 25 μL of britelite plus luciferase assay reagent (PerkinElmer) was added, and then reading was performed using an Envision 2105 multiplate reader (PerkinElmer).
(§2) The activity was calculated using the following formula, % activity=100*(signal of compound well−average signal of negative control well)/(average signal of positive control well−average signal of negative control well). […] Fitting calculation of EC50 was performed on % activity and the logarithmic concentration of the compound using Graphpad 8.0, Y=Bottom+(Top−Bottom)/(1+10^((Log EC50−X)*HillSlope)), wherein Y is % activity, and X is the logarithmic concentration of the compound.

glucocorticoid receptor [2] = target: T1, glucocorticoid receptor; assay: GRE reporter gene test (Experiment Example 2), HEK293T cells transfected with pGL4.35 and p-Bind GR Vector; format: cell-based; settings: for Emax: HEK-293T; for EC50: GRE reporter gene, HEK293T cells, 18-20 h incubation; for maximum agonistic activity (Emax): compared with dexamethasone, transfected HEK293T cells
Protocol: The compound of the present invention to be tested was formulated into a 1 mM solution with DMSO, and then subjected to 4-fold dilution at 10 concentration points using DMSO to obtain a 1000× mother liquor, with a final test concentration of 0.0000038-1 μM.
as §1
In a 384-well plate (PerkinElmer), 25 nL of the compound mother liquor was added, and then HEK293T cells transfected with plasmids were added at a density of 18000 cells/well (25 μL). The cells were incubated for 18-20 h under the conditions of 37° C. and 5% CO2.
After the incubation was ended, 25 μL of britelite plus luciferase assay reagent (PerkinElmer) was added, and then reading was performed using an Envision 2105 multimode reader (PerkinElmer).
as §2

## C[C@@H]1C[C@H]2[C@@H]3C[C@H](F)C4=CC(=O)C=C[C@]4(C)[C@@]3(F)[C@@H](O)C[C@]2(C)[C@@]1(OC(=O)c1ccccc1O)C(=O)SCF [B-25]
Glucocorticoid receptor [1]
  EC50: 0.13 nM
Glucocorticoid receptor [1]; read-out: Emax
  Emax: 85.6%

## C[C@@H]1C[C@H]2[C@@H]3C[C@H](F)C4=CC(=O)C=C[C@]4(C)[C@@]3(F)[C@@H](O)C[C@]2(C)[C@@]1(OC(=O)c1ccccc1)C(=O)SCF [H-1, (6S,8S,9R,10S,11S,13S,14S,16R,17R)-6,9-difluoro-17-((fluoromethyl)thio)carbonyl)-11-hydroxy-10,13,16-trimethyl-3-oxo-6,7,8,9,10,11,12,13,14,15,16,17-dodecahydro-3H-cyclopenta[a]phenanthren-17-yl benzoate]
Glucocorticoid receptor [1]
  EC50: 0.18 nM
  maximum agonistic effect (Emax): superior to dexamethasone
Glucocorticoid receptor [1]; read-out: Emax
  Emax: 110%

## C[C@@H]1C[C@H]2[C@@H]3CCC4=CC(=O)C=C[C@]4(C)[C@@]3(F)[C@@H](O)C[C@]2(C)[C@@]1(O)C(=O)CO [Dexamethasone, reference compound]
Glucocorticoid receptor [1]
  Emax: 100%
Glucocorticoid receptor [2]
  Emax: 98.3%

## C[C@@H]1C[C@H]2[C@@H]3C[C@H](F)C4=CC(=O)C=C[C@]4(C)[C@@]3(F)[C@@H](O)C[C@]2(C)[C@@]1(OC(=O)c1ccc(F)c(N)c1)C(=O)OCF [O-1, fluoromethyl (6S,8S,9R,10S,11S,13S,14S,16R,17R)-17-((3-amino-4-fluorobenzoyl)oxy)-6,9-difluoro-11-hydroxy-10,13,16-trimethyl-3-oxo-6,7,8,9,10,11,12,13,14,15,16,17-dodecahydro-3H-cyclopenta[a]phenanthrene-17-carboxylate]
Glucocorticoid receptor [1]
  EC50: 0.2 nM
Glucocorticoid receptor [1]; read-out: Emax
  Emax: 87.3%

## C[C@@H]1C[C@H]2[C@@H]3C[C@H](F)C4=CC(=O)C=C[C@]4(C)[C@@]3(F)[C@@H](O)C[C@]2(C)[C@@]1(OC(=O)c1ccnc(N)c1)C(=O)SCF [P-1, (6S,8S,9R,10S,11S,13S,14S,16R,17R)-6,9-difluoro-17-(((fluoromethyl)thio)carbonyl)-11-hydroxy-10,13,16-trimethyl-3-oxo-6,7,8,9,10,11,12,13,14,15,16,17-dodecahydro-3H-cyclopenta[a]phenanthren-17-yl 2-aminoisonicotinate]
Glucocorticoid receptor [1]
  EC50: 1.4 nM
Glucocorticoid receptor [1]; read-out: Emax
  Emax: 91.2%

## C[C@@H]1C[C@H]2[C@@H]3C[C@H](F)C4=CC(=O)C=C[C@]4(C)[C@@]3(F)[C@@H](O)C[C@]2(C)[C@@]1(OC(=O)c1ccco1)C(=O)SCCO [F-21, (6S,8S,9R,10S,11S,13S,14S,16R,17R)-6,9-difluoro-11-hydroxy-17-((2-hydroxyethyl)thio)carbonyl-10,13,16-trimethyl-3-oxo-6,7,8,9,11,12,13,14,15,16,17-dodecahydro-3H-cyclopenta[a]phenanthren-17-yl furan-2-carboxylate]
Glucocorticoid receptor [2]
  EC50: 1.3 nM
  Emax: 139%
  maximum agonistic activity (Emax): superior to dexamethasone

## C[C@@H]1C[C@H]2[C@@H]3C[C@H](F)C4=CC(=O)C=C[C@]4(C)[C@@]3(F)[C@@H](O)C[C@]2(C)[C@@]1(OC(=O)c1cc(N)co1)C(=O)SCF [F-2, (6S,8S,9R,10S,11S,13S,14S,16R,17R)-6,9-difluoro-17-(((fluoromethyl)thio)carbonyl)-11-hydroxy-10,13,16-trimethyl-3-oxo-6,7,8,9,10,11,12,13,14,15,16,17-dodecahydro-3H-cyclopenta[a]phenanthren-17-yl 4-aminofuran-2-carboxylate]
Glucocorticoid receptor [1]
  EC50: 1.2 nM
  maximum agonistic effect (Emax): superior to dexamethasone
Glucocorticoid receptor [1]; read-out: Emax
  Emax: 125%

## C[C@@H]1C[C@H]2[C@@H]3C[C@H](F)C4=CC(=O)C=C[C@]4(C)[C@@]3(F)[C@@H](O)C[C@]2(C)[C@@]1(OC(=O)c1ccc(F)c(N)c1)C(=O)OCCl [O-3, chloromethyl (6S,8S,9R,10S,11S,13S,14S,16R,17R)-17-((3-amino-4-fluorobenzoyl)oxy)-6,9-difluoro-11-hydroxy-10,13,16-trimethyl-3-oxo-6,7,8,9,10,11,12,13,14,15,16,17-dodecahydro-3H-cyclopenta[a]phenanthrene-17-carboxylate]
Glucocorticoid receptor [1]
  EC50: 0.4 nM
Glucocorticoid receptor [1]; read-out: Emax
  Emax: 87.7%

## C[C@@H]1C[C@H]2[C@@H]3C[C@H](F)C4=CC(=O)C=C[C@]4(C)[C@@]3(F)[C@@H](O)C[C@]2(C)[C@@]1(OC(=O)[C@H]1C[C@@H]1c1ccc(N)cc1)C(=O)SCF [C-1]
Glucocorticoid receptor [1]
  EC50: 0.9 nM
  maximum agonistic effect (Emax): superior to dexamethasone
Glucocorticoid receptor [1]; read-out: Emax
  Emax: 102%

## C[C@@H]1C[C@H]2[C@@H]3C[C@H](F)C4=CC(=O)C=C[C@]4(C)[C@@]3(F)[C@@H](O)C[C@]2(C)[C@@]1(OC(=O)c1ccc(F)cc1)C(=O)SCF [H-5]
Glucocorticoid receptor [1]
  EC50: 0.16 nM
  maximum agonistic effect (Emax): superior to dexamethasone
Glucocorticoid receptor [1]; read-out: Emax
  Emax: 107%

## C[C@@H]1C[C@H]2[C@@H]3C[C@H](F)C4=CC(=O)C=C[C@]4(C)[C@@]3(F)[C@@H](O)C[C@]2(C)[C@@]1(OC(=O)c1cccc(O)c1)C(=O)SCF [B-1]
Glucocorticoid receptor [1]
  EC50: 0.19 nM
  maximum agonistic effect (Emax): superior to dexamethasone
Glucocorticoid receptor [1]; read-out: Emax
  Emax: 105%

## C[C@@H]1C[C@H]2[C@@H]3C[C@H](F)C4=CC(=O)C=C[C@]4(C)[C@@]3(F)[C@@H](O)C[C@]2(C)[C@@]1(OC(=O)C[C@@H](C)O)C(=O)SCF [D-19, (6S,8S,9R,10S,11S,13S,14S,16R,17R)-6,9-difluoro-17-(((fluoromethyl)thio)carbonyl)-11-hydroxy-10,13,16-trimethyl-3-oxo-6,7,8,9,10,11,12,13,14,15,16,17-dodecahydro-3H-cyclopenta[a]phenanthren-17-yl (R)-3-hydroxybutyrate]
Glucocorticoid receptor [2]
  EC50: 1.2 nM
  Emax: 120%
  maximum agonistic activity (Emax): superior to dexamethasone

## C[C@@H]1C[C@H]2[C@@H]3C[C@H](F)C4=CC(=O)C=C[C@]4(C)[C@@]3(F)[C@@H](O)C[C@]2(C)[C@@]1(OC(=O)/C=C/c1ccc(F)c(N)c1)C(=O)SCF [E-3]
Glucocorticoid receptor [1]
  EC50: 1.2 nM
Glucocorticoid receptor [1]; read-out: Emax
  Emax: 97.2%

## C[C@@H]1C[C@H]2[C@@H]3C[C@H](F)C4=CC(=O)C=C[C@]4(C)[C@@]3(F)[C@@H](O)C[C@]2(C)[C@@]1(OC(=O)c1ccc(O)cc1)C(=O)SCF [B-13]
Glucocorticoid receptor [1]
  EC50: 0.27 nM
Glucocorticoid receptor [1]; read-out: Emax
  Emax: 100%
